In publication PMC8494914, “Elexacaftor is a CFTR potentiator and acts synergistically with ivacaftor during acute and chronic treatment” (Scientific Reports, 2021):

Key:
[1] = molecular target: T1, cystic fibrosis transmembrane conductance regulator (CFTR) (Homo sapiens, UniProt P13569); assay: Ussing chamber transepithelial current, concentration-response of acute potentiation; assay type: cell-based
T1 construct: endogenous CFTR in non-CF human nasal epithelial cells

R117H-CFTR = molecular target: T2, R117H-CFTR (Homo sapiens, UniProt P13569, R117H); assay: Ussing chamber transepithelial current, acute potentiation; assay type: cell-based
T2 construct: R117H-CFTR expressed in FRT cells
T2 sequence (P13569 whole entry R117H): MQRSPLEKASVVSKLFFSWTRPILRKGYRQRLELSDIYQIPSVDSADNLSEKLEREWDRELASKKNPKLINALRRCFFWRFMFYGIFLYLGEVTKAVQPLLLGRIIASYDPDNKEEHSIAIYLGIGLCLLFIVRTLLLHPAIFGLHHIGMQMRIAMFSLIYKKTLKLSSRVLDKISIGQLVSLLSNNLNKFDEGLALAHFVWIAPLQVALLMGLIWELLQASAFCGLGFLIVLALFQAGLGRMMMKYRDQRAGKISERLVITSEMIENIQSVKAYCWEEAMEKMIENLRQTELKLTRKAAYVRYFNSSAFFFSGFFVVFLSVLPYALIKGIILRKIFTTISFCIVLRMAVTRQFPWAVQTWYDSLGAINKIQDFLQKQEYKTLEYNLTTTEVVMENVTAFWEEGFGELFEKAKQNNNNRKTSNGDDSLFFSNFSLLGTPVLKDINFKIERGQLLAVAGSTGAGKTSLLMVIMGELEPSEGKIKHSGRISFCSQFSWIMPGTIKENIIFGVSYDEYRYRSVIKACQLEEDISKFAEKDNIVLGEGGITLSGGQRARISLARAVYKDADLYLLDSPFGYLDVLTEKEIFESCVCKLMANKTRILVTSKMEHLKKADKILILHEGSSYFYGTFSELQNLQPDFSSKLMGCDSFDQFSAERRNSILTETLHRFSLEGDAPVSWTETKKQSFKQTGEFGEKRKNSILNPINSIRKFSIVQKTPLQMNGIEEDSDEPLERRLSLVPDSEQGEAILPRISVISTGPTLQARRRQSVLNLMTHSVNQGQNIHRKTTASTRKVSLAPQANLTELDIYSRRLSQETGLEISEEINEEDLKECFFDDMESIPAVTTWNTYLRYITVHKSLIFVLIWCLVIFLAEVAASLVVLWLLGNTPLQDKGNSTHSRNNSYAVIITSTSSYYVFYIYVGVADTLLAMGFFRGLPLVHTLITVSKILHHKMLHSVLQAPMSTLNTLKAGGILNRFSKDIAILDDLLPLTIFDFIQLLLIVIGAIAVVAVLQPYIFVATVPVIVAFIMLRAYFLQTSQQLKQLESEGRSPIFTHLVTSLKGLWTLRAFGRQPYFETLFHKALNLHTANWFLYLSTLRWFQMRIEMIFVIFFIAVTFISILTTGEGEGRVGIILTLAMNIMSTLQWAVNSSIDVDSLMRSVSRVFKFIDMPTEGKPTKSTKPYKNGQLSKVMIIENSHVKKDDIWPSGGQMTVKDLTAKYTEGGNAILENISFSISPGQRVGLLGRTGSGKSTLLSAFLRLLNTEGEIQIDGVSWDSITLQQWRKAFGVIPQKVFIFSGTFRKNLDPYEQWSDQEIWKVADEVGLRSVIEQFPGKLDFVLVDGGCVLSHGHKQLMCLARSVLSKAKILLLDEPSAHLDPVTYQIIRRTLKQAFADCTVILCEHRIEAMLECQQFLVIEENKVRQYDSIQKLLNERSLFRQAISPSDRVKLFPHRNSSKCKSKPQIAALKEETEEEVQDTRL

T1 sequence (P13569 whole entry): as the sequence (P13569 whole entry R117H) above, with H117R counted along it

EC50 [1] [nM]	Compound	Ussing chamber transepithelial current, acute potentiation (R117H-CFTR)
1.5 ± 1.4	Cc1nn(C)cc1S(=O)(=O)NC(=O)c1ccc(-n2ccc(OCC(C)(C)C(F)(F)F)n2)nc1N1C[C@@H](C)CC1(C)C [VX-445, elexacaftor]	We also found that VX-445 potentiates R117H-CFTR expressed in FRT cells
	CC(C)(C)c1cc(C(C)(C)C)c(NC(=O)c2c[nH]c3ccccc3c2=O)cc1O [VX-770, ivacaftor]	VX-445 and VX-770 did not exhibit the same high degree of synergy in potentiating R117H-CFTR
